The results in this text go back to article PMC13213488, “Small Molecule Activators of Protein Phosphatase 2A Exert Global Stabilizing Effects on the Scaffold PR65” (JACS Au, 2026).

In the test the target is T1, PR65 (Homo sapiens, UniProt P30153).
T1 construct: gene PPP2R1A; WT PR65 alone (scaffold, 15 HEAT repeats, no B or C subunit), expressed in E. coli C41 as GST fusion, GST tag cleaved with thrombin; also a variant with ybbR tags at N- and C-termini used for optical tweezers
As to the kind of experiment: nanoDSF thermal shift. To be noted: melting temperature with ligand, not a shift (apo 52.7 ± 0.1 °C); 2 μM PR65, 100 μM ligand, PBS, 2 mM DTT, 10% DMSO. It is filed as binding. (In DSF a fluorescence change marks the thermal transition of the protein.)

T1 sequence (P30153 2-589): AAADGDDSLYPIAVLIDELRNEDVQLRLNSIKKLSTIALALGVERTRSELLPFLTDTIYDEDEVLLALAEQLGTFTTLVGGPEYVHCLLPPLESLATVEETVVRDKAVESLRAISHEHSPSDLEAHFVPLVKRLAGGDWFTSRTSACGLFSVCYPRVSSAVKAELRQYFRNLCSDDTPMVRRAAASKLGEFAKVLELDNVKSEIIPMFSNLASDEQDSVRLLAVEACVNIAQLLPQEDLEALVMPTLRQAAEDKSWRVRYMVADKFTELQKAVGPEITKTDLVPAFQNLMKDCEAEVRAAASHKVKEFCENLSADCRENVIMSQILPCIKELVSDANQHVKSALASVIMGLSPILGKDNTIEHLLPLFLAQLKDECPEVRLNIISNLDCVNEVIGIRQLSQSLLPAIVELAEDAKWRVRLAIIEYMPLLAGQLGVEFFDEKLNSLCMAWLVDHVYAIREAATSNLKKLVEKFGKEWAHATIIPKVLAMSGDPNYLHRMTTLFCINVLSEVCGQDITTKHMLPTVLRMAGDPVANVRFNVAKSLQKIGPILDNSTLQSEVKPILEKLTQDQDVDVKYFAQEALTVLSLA

With DBK-766, the T m turned out to be 53.5 ± 0.1 °C.
